In BigSolDB 2.1:

CC(CO)(CO)C(=O)O
solubility (mole fraction)
Settings	288.15 K	293.15 K	298.15 K	303.15 K	308.15 K	313.15 K	318.15 K	323.15 K	328.15 K
in DMF	0.163	0.171	0.177	0.184	0.191	0.201	0.21	0.218	0.225
in acetone	0.00255	0.00292	0.00366	0.004	0.00477	0.00564	0.00645	0.00753	0.00853
in ethanol	0.0117	0.0135	0.0155	0.0186	0.0214	0.0254	0.0293	0.0341	0.0386
in ethyl acetate	0.00042	0.00048	0.00056	0.00072	0.00096	0.00131	0.00163	0.00202	0.00253
in isopropanol	0.00755	0.00901	0.0114	0.0131	0.0164	0.0185	0.0209	0.0252	0.0306
in methanol	0.0223	0.0254	0.0288	0.0334	0.038	0.0436	0.0498	0.0566	0.0635
in methyl acetate	0.00052	0.00072	0.00094	0.00121	0.00149	0.00186	0.00234	0.00301	0.0041
in n-butanol	0.00666	0.00759	0.00911	0.0108	0.0132	0.0155	0.0181	0.0214	0.0257
in n-butyl acetate	0.00033	0.00038	0.00046	0.00053	0.00063	0.00075	0.00087	0.00098	0.00113
in n-propanol	0.00677	0.00775	0.00939	0.0111	0.0136	0.0161	0.0189	0.0226	0.027
in sec-butanol	0.0068	0.00792	0.00935	0.0112	0.014	0.0165	0.0191	0.0232	0.0277
in water	0.0133	0.0152	0.0169	0.0199	0.0231	0.0265	0.0305	0.0349	0.0414
